Laboratory results from ChEMBL document CHEMBL1201862, “PubChem BioAssay data set” (2004).
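Dose response: 5 concentrations. Exposure: 48 h. Format: 96-well plates. Endpoint: linear interpolation; highest concentration if not reached. The concentration for 50% growth inhibition is given as GI50.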 Calls of active or inactive are those of the source. Rule as the data show it: active = GI50 up to about 1.1 µM and inactive = higher.

Tests used:
Experiment in all cases: NCI tumour cell line growth inhibition, 48 h
786-0 = system: 786-0
A498 = system: A498
CAKI-1 = system: CAKI-1
CCRF-CEM = system: CCRF-CEM
HCT-116 = system: HCT-116
HL-60 = system: HL-60
HOP-62 = system: HOP-62
Hs-578T = system: Hs-578T
K562 = system: K562
LOX IMVI = system: LOX IMVI
M14 = system: M14
MDA-MB-231 = system: MDA-MB-231
NCI-H460 = system: NCI-H460
OVCAR-8 = system: OVCAR-8
SK-MEL-28 = system: SK-MEL-28
SK-OV-3 = system: SK-OV-3
UO-31 = system: UO-31
NCI-H522 = system: NCI-H522
OVCAR-4 = system: OVCAR-4

Measured: GI50

O=C(Cn1c(=O)oc2ccccc21)N(c1ccccc1)c1ccccc1
inactive: 786-0 > 100 µM | A498 > 100 µM | CAKI-1 > 100 µM | CCRF-CEM > 100 µM | HCT-116 > 100 µM | HL-60 > 100 µM | HOP-62 > 100 µM | Hs-578T 40.9 µM | K562 > 100 µM | LOX IMVI > 100 µM | M14 > 100 µM | MDA-MB-231 > 100 µM | NCI-H460 > 100 µM | OVCAR-8 52.8 µM | SK-MEL-28 > 100 µM | SK-OV-3 > 100 µM | UO-31 > 100 µM

C[N+](C)=c1nc(N2CCOCC2)ss1
inactive: 786-0 > 100 µM | A498 4.14 µM | CAKI-1 > 100 µM | CCRF-CEM > 100 µM | HCT-116 > 100 µM | HL-60 > 100 µM | HOP-62 > 100 µM | K562 > 100 µM | LOX IMVI 88.7 µM | M14 > 100 µM | NCI-H460 8.04 µM | NCI-H522 13.7 µM | OVCAR-8 > 100 µM | SK-MEL-28 > 100 µM | SK-OV-3 > 100 µM | UO-31 > 100 µM

CCCCC(=O)N/S(=N/C(=O)c1ccccc1)C(Cl)(Cl)Cl (configuration not stated)
inactive: 786-0 > 100 µM | CCRF-CEM > 100 µM | HCT-116 > 100 µM | HL-60 79.1 µM | HOP-62 > 100 µM | Hs-578T > 100 µM | K562 > 100 µM | LOX IMVI > 100 µM | M14 > 100 µM | MDA-MB-231 > 100 µM | NCI-H460 > 100 µM | OVCAR-4 > 100 µM | OVCAR-8 > 100 µM | SK-MEL-28 > 100 µM | SK-OV-3 > 100 µM | UO-31 > 100 µM

CCN(CC)CCCn1c(=O)c2cccnc2n2c3c(=O)n(C)c(=O)n(C)c3nc12
inactive: 786-0 > 100 µM | CAKI-1 > 100 µM | CCRF-CEM > 100 µM | HCT-116 > 100 µM | HL-60 > 100 µM | HOP-62 > 100 µM | Hs-578T > 100 µM | K562 > 100 µM | LOX IMVI > 100 µM | M14 > 100 µM | MDA-MB-231 > 100 µM | NCI-H460 84.7 µM | NCI-H522 > 100 µM | OVCAR-4 > 100 µM | OVCAR-8 > 100 µM | SK-MEL-28 > 100 µM | SK-OV-3 > 100 µM | UO-31 > 100 µM

O=P(c1ccccc1)(c1ccccc1)N1O[C@@H](c2ccccc2)C=C[C@H]1c1ccccc1
inactive: 786-0 10.4 µM | CAKI-1 5.66 µM | CCRF-CEM 10.5 µM | HCT-116 4.11 µM | HL-60 5.24 µM | HOP-62 13.1 µM | Hs-578T 14.2 µM | K562 6.17 µM | LOX IMVI 7.19 µM | M14 10.9 µM | MDA-MB-231 8.24 µM | NCI-H460 5.53 µM | NCI-H522 9.33 µM | OVCAR-4 2.57 µM | OVCAR-8 12.8 µM | SK-MEL-28 17.3 µM | SK-OV-3 15.1 µM | UO-31 5.13 µM

N#Cc1c(-c2ccccc2)c(/N=N/c2ccc(Cl)cc2)c(=O)n2c1[nH]c1ccccc12
inactive: 786-0 23.6 µM | A498 > 100 µM | CAKI-1 24.3 µM | CCRF-CEM > 100 µM | HCT-116 31 µM | HOP-62 27.2 µM | LOX IMVI > 100 µM | M14 > 100 µM | MDA-MB-231 > 100 µM | NCI-H460 35.5 µM | NCI-H522 79.4 µM | OVCAR-4 15.7 µM | OVCAR-8 90.2 µM | SK-MEL-28 > 100 µM | SK-OV-3 94.2 µM | UO-31 46.9 µM

CC(=O)n1[nH]c(=O)n(-c2ccc(Cl)cc2)c1=O
inactive: 786-0 > 100 µM | CAKI-1 > 100 µM | CCRF-CEM > 100 µM | HCT-116 > 100 µM | HL-60 > 100 µM | HOP-62 > 100 µM | K562 > 100 µM | LOX IMVI > 100 µM | M14 > 100 µM | MDA-MB-231 > 100 µM | NCI-H460 > 100 µM | NCI-H522 > 100 µM | OVCAR-4 > 100 µM | OVCAR-8 > 100 µM | SK-MEL-28 > 100 µM | SK-OV-3 > 100 µM | UO-31 > 100 µM

COc1cc2ccc(/C(C)=N/OC(C)=O)cc2cc1OC
inactive: 786-0 > 100 µM | A498 22.8 µM | CCRF-CEM 66.5 µM | HCT-116 > 100 µM | K562 94 µM | LOX IMVI > 100 µM | M14 > 100 µM | NCI-H460 82.2 µM | NCI-H522 22.4 µM | OVCAR-4 > 100 µM | OVCAR-8 > 100 µM | SK-MEL-28 > 100 µM | SK-OV-3 > 100 µM | UO-31 34.7 µM

COc1ccccc1C1c2cc3c(cc2OC(N2CCCC2)C1C)OCO3 (configuration not stated)
inactive: 786-0 16.8 µM | A498 15.2 µM | CAKI-1 9.84 µM | CCRF-CEM 19.5 µM | HCT-116 14.8 µM | HL-60 14.2 µM | HOP-62 15.1 µM | Hs-578T 7.48 µM | K562 15.1 µM | LOX IMVI 16.9 µM | M14 13.7 µM | NCI-H460 16.4 µM | NCI-H522 9.95 µM | OVCAR-4 21.6 µM | OVCAR-8 21.2 µM | SK-MEL-28 20.4 µM | UO-31 10.4 µM

CC(=O)Oc1cc2oc(=O)cc(C)c2cc1OC(C)=O
inactive: 786-0 61 µM | A498 44.6 µM | CCRF-CEM 16.7 µM | HCT-116 44 µM | HOP-62 51.8 µM | Hs-578T 68.4 µM | K562 55.7 µM | LOX IMVI 40.2 µM | M14 50.6 µM | MDA-MB-231 58.7 µM | OVCAR-4 85.7 µM | OVCAR-8 32.2 µM | SK-MEL-28 53.1 µM | SK-OV-3 > 100 µM | UO-31 24.6 µM

CCOc1ccc(/N=N/C2C(=O)N(C(=O)CC(=O)Nc3ccc(C)cc3)N=C2C)cc1 (configuration not stated)
inactive: 786-0 16 µM | A498 13.2 µM | CAKI-1 26.5 µM | CCRF-CEM 43.6 µM | HCT-116 12.4 µM | HL-60 13.1 µM | HOP-62 16 µM | Hs-578T 5.73 µM | LOX IMVI 14.6 µM | M14 52.7 µM | MDA-MB-231 17 µM | NCI-H460 14.8 µM | OVCAR-4 25.3 µM | OVCAR-8 16.6 µM | SK-MEL-28 30.8 µM | UO-31 29.4 µM

Cc1nnc2n(c1=O)CCN2C
inactive: 786-0 > 100 µM | CCRF-CEM > 100 µM | HCT-116 > 100 µM | HL-60 > 100 µM | HOP-62 > 100 µM | Hs-578T > 100 µM | K562 > 100 µM | LOX IMVI > 100 µM | M14 > 100 µM | MDA-MB-231 > 100 µM | NCI-H460 > 100 µM | OVCAR-4 > 100 µM | OVCAR-8 > 100 µM | SK-MEL-28 > 100 µM | SK-OV-3 > 100 µM | UO-31 > 100 µM

CC(=O)O[C@H]1CC2C(C3CCC(C(C)CCC(=O)O)[C@]31C)[C@H](OC(C)=O)C[C@@H]1CC3(CC[C@]21C)OOC1(CC[C@]2(C)C4C[C@H](OC(C)=O)[C@]5(C)C(C(C)CCC(=O)O)CCC5C4[C@H](OC(C)=O)C[C@@H]2C1)OO3 (some centres not stated)
inactive: 786-0 2.76 µM | CAKI-1 2.19 µM | CCRF-CEM 2.59 µM | HCT-116 1.75 µM | HL-60 1.51 µM | HOP-62 1.83 µM | Hs-578T 1.5 µM | K562 2.44 µM | LOX IMVI 1.63 µM | M14 2.53 µM | MDA-MB-231 2.01 µM | NCI-H460 1.48 µM | NCI-H522 1.42 µM | OVCAR-4 2.8 µM | OVCAR-8 1.66 µM | SK-MEL-28 4.09 µM | SK-OV-3 4.08 µM | UO-31 1.74 µM

O=[N+]([O-])c1cn[n+]([O-])c2ccccc12
inactive: 786-0 2.43 µM | A498 23.1 µM | CAKI-1 2.56 µM | CCRF-CEM 2.74 µM | HCT-116 1.24 µM | HL-60 1.17 µM | HOP-62 12.9 µM | Hs-578T 13.8 µM | LOX IMVI 6.67 µM | M14 2.87 µM | MDA-MB-231 13.2 µM | NCI-H460 4.61 µM | OVCAR-8 2.18 µM | SK-MEL-28 10.4 µM | SK-OV-3 13.2 µM

CCC(C)[C@@H](NCc1ccccc1)[C@H](OCc1ccccc1)[C@@H]1COC(C)(C)O1 (some centres not stated)
inactive: 786-0 18.8 µM | CCRF-CEM 27.1 µM | HCT-116 13 µM | HOP-62 32.2 µM | Hs-578T 21.1 µM | K562 20.3 µM | LOX IMVI 18 µM | M14 29.2 µM | MDA-MB-231 17.1 µM | OVCAR-4 28.8 µM | OVCAR-8 20.5 µM | SK-MEL-28 24.8 µM | SK-OV-3 30.5 µM | UO-31 17.3 µM

COC(C(=O)NN)c1ccccc1 (configuration not stated)
inactive: 786-0 > 100 µM | CAKI-1 > 100 µM | HOP-62 > 100 µM | Hs-578T > 100 µM | K562 > 100 µM | M14 > 100 µM | NCI-H460 > 100 µM | NCI-H522 > 100 µM | OVCAR-8 > 100 µM | SK-MEL-28 > 100 µM | SK-OV-3 > 100 µM | UO-31 > 100 µM

COc1ccc(N2C(=O)c3cccnc3S2(=O)=O)cc1
inactive: 786-0 > 100 µM | A498 > 100 µM | CAKI-1 > 100 µM | CCRF-CEM > 100 µM | HCT-116 > 100 µM | HL-60 > 100 µM | HOP-62 > 100 µM | K562 > 100 µM | M14 > 100 µM | MDA-MB-231 > 100 µM | NCI-H460 > 100 µM | NCI-H522 > 100 µM | OVCAR-4 > 100 µM | OVCAR-8 > 100 µM | SK-MEL-28 > 100 µM | SK-OV-3 > 100 µM | UO-31 > 100 µM
